This is an account of results in US7425557B2, “Inhibitors of glycogen synthase kinase 3” (Novartis Vaccines and Diagnostics, Inc., priority 1998, dated 2008).

Chain of human GSK3β (P49841 whole entry): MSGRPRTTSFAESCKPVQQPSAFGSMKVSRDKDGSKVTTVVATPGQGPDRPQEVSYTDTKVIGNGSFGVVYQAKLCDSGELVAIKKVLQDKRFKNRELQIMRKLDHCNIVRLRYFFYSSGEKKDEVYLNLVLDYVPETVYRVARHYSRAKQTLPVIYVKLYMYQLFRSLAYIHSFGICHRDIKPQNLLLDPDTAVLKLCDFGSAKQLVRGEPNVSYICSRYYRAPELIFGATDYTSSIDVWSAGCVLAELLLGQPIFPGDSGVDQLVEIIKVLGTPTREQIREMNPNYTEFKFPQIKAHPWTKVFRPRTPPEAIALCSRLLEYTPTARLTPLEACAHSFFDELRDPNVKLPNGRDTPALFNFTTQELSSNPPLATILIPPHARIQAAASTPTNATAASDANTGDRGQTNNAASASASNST

The test has as its target human GSK3β (Homo sapiens, UniProt P49841). The test can be described thus: Screening for GSK3 inhibitory activity using a cell-free assay. It counts as biochemical. The settings on record: read-out: IC50 with respect to GSK3. The gist of the method: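 Radiometric cell-free assay with recombinant human GSK3β phosphorylating a biotinylated peptide substrate for 3 h. Reactions were stopped with 50 μM ATP/20 mM EDTA and captured on streptavidin plates. Incorporated radiolabel was counted by scintillation and plotted against compound concentration.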
Take `O=[N+]([O-])c1ccc(NCCNc2ncc(CO)c(-c3ccc(Cl)cc3Cl)n2)nc1` [[4-(2,4-dichlorophenyl)-2-({2-[(5-nitro(2-pyridyl))amino]ethyl}amino)-pyrimidin-5-yl]methan-1-ol]: the IC50 is at most 1000 nM.

On to `NC(=O)c1ccc(-c2ccnc(NCCNc3ccc([N+](=O)[O-])cn3)n2)cc1` [4-[2-({2-[(5-nitro-2-pyridyl)amino]ethyl}amino)-pyrimidin-4-yl]benzamide], for which the IC50 was at most 1000 nM.

Turning to `CCOC(=O)c1cnc(NCCc2ccccn2)nc1-c1ccc(F)cc1` [ethyl 4-(4-fluorophenyl)-2-[(2-(2-pyridyl)ethyl)amino]pyrimidine-5-carboxylate], the IC50 was at most 10000 nM.

Consider `NC(=O)c1ccc(-c2ccnc(NCCCOc3cccc(Br)c3)n2)cc1` [4-(2-{[3-(3-bromophenoxy)propyl]-amino}pyrimidin-4-yl)benzamide], for which the IC50 was at most 10000 nM.

With `O=C(O)c1c(-c2ccc([N+](=O)[O-])cc2)nc(NCCNc2ccc([N+](=O)[O-])cn2)nc1-c1ccc([N+](=O)[O-])cc1` [4,6-bis(4-nitrophenyl)-2-({2-[(5-nitro(2-pyridyl))amino]ethyl}amino)pyrimidine-5-carboxylic acid], the IC50 is at most 10000 nM.

Regarding `CCOC(=O)c1cnc(NCCNc2ccc([N+](=O)[O-])cn2)nc1-c1ccc(C#N)cc1` [ethyl 4-(4-cyanophenyl)-2-({2-[(5-nitro(2-pyridyl))amino]ethyl}amino)pyrimidine-5-carboxylate], the IC50 was at most 1000 nM.

As to `CCOC(=O)c1cnc(NCCNc2ccc([N+](=O)[O-])cn2)nc1-c1ccc(C(F)(F)F)cc1` [ethyl 2-({2-[(5-nitro(2-pyridyl))amino]ethyl}amino)-4-[4-(trifluoromethyl)phenyl]pyrimidine-5-carboxylate], the concentration for half-maximal inhibition (IC50) was at most 1000 nM.

On to `Nc1nc(NCCNc2ncc(N3CCNCC3)c(-c3ccc(Cl)cc3Cl)n2)ccc1[N+](=O)[O-]` [{2-[(6-amino-5-nitro(2-pyridyl))amino]-ethyl}[4-(2,4-dichlorophenyl)-5-piperazinylpyrimidin-2-yl]amine], for which the IC50 was at most 1000 nM.

For `O=C(NCc1ccc(Br)cc1)c1ccc(-c2ccnc(NCCNc3ccc([N+](=O)[O-])cn3)n2)cc1` [N-[(4-bromophenyl)methyl]{4-[2-({2-[(5-nitro(2-pyridyl))-amino]ethyl}amino)pyrimidin-4-yl]phenyl}carboxamide], the IC50 is at most 10000 nM.

Take `CCc1cnc(NCCNc2ccc([N+](=O)[O-])cn2)nc1-c1ccc(Cl)cc1Cl` [[4-(2,4-dichlorophenyl)-5-ethylpyrimidin-2-yl]{2-[(5-nitro(2-pyridyl))amino]ethyl}amine]: the IC50 was at most 1000 nM.

With `COc1cccc(CNC(=O)c2ccc(-c3ccnc(NCCNc4ccc([N+](=O)[O-])cn4)n3)cc2)c1OC` [N-[(2,3-dimethoxyphenyl)methyl]{4-[2-({2-[(5-nitro(2-pyridyl))amino]ethyl}amino)pyrimidin-4-yl]phenyl}carboxamide], the IC50 is at most 10000 nM.

In the case of `Cn1ccnc1-c1cnc(NCCNc2ccc([N+](=O)[O-])c(N)n2)nc1-c1ccc(Cl)cc1Cl` [{2-[(6-amino-5-nitro(2-pyridyl))amino]ethyl}[4-(2,4-dichlorophenyl)-5-(1-methylimidazol-2-yl)pyrimidin-2-yl]amine], the concentration for half-maximal inhibition (IC50) was at most 1000 nM.

`Nc1nc(NCCNc2ncc(N3C(=O)c4ccccc4C3=O)c(-c3ccc(Cl)cc3Cl)n2)ccc1[N+](=O)[O-]` [2-[2-({2-[(6-amino-5-nitro(2-pyridyl))amino]ethyl}amino)-4-(2,4-dichlorophenyl)pyrimidin-5-yl]isoindoline-1,3-dione]: the IC50 is at most 1000 nM.

As to `N#Cc1ccc(NCCNc2nccc(-c3ccc(C(N)=O)cc3)n2)nc1` [4-[2-({2-[(5-cyano-2-pyridyl)amino]-ethyl}amino)pyrimidin-4-yl]benzamide], the IC50 was at most 1000 nM.

Take `N#Cc1ccc(-c2nc(NCCNc3ccc([N+](=O)[O-])cn3)ncc2C(=O)OCCO)cc1` [2-hydroxyethyl 4-(4-cyanophenyl)-2-({2-[(5-nitro(2-pyridyl))-amino]ethyl}amino)pyrimidine-5-carboxylate]: the IC50 was at most 1000 nM.

In the case of `Cc1cc(Cl)ccc1-c1nc(NCCNc2ccc([N+](=O)[O-])c(N)n2)ncc1-c1ncc[nH]1` [{2-[(6-amino-5-nitro(2-pyridyl))amino]ethyl}[4-(4-chloro-2-methylphenyl)-5-imidazol-2-ylpyrimidin-2-yl]amine], the 50% inhibitory concentration (IC50) was at most 1000 nM.

In the case of `NC(=O)c1ccc(-c2ccnc(NCCNc3nc4ccccc4s3)n2)cc1`, the IC50 was at most 10000 nM.

Turning to `O=[N+]([O-])c1ccc(NCCNc2ncc(-n3cccn3)c(-c3ccc(Cl)cc3Cl)n2)nc1`, the IC50 is at most 1000 nM.

In the case of `CCOC(=O)c1cnc(NCCNc2ccc([N+](=O)[O-])cn2)nc1-c1ccc(N(CC)CC)cc1` [ethyl 4-[4-(diethylamino)phenyl]-2-({2-[(5-nitro(2-pyridyl))amino]ethyl}-amino)pyrimidine-5-carboxylate], the IC50 is at most 10000 nM.

Turning to `Cc1nc(NCCNc2ccc([N+](=O)[O-])cn2)nc(-c2ccccc2)c1C(=O)O` [6-methyl-2-({2-[(5-nitro(2-pyridyl))amino]ethyl}amino)-4-phenylpyrimidine-5-carboxylic acid], the IC50 is at most 10000 nM.

With `O=[N+]([O-])c1ccc(NCCNc2ncc(-c3ncc[nH]3)c(-c3ccc(C(F)(F)F)cc3)n2)nc1` [{5-imidazol-2-yl-4-[4-(trifluoromethyl)phenyl]pyrimidin-2-yl}{2-[(5-nitro(2-pyridyl))amino]ethyl}amine], the IC50 was at most 1000 nM.

`N#Cc1ccc(-c2nc(NCCNc3ccc([N+](=O)[O-])cn3)nc(-c3ccc(F)cc3)c2C(=O)O)cc1` [4-(4-cyanophenyl)-6-(4-fluorophenyl)-2-({2-[(5-nitro(2-pyridyl))amino]ethyl}-amino)pyrimidine-5-carboxylic acid]: the IC50 was at most 1000 nM.

For `CN(C)CCOC(=O)c1cnc(NCCNc2ccc([N+](=O)[O-])c(N)n2)nc1-c1ccc(C#N)cc1`, the IC50 is at most 1000 nM.

For the molecule `NC(=O)c1ccc(-c2ccnc(NCc3ccc(-c4ccc(F)cc4)cc3)n2)cc1` [4-[2-({[4-(4-fluorophenyl)phenyl]methyl}amino)pyrimidin-4-yl]benzamide], the IC50 is at most 10000 nM.

Turning to `NC(=O)c1ccc(-c2ccnc(NCC(c3ccccc3)c3ccccc3)n2)cc1` [4-{2-[(2,2-diphenylethyl)amino]pyrimidin-4-yl}-benzamide], the IC50 was at most 10000 nM.

`CCNC(=O)c1ccc(NCCNc2ncc(C(=O)OCC)c(-c3ccc(C#N)cc3)n2)nc1` [ethyl 4-(4-cyanophenyl)-2-[(2-{[5-(N-ethylcarbamoyl)(2-pyridyl)]amino}-ethyl)amino]pyrimidine-5-carboxylate]: the IC50 is at most 10000 nM.

In the case of `CCOC(=O)c1c(CC)nc(NCCNc2ncccn2)nc1-c1ccc(C(N)=O)cc1` [ethyl 4-(4-carbamoylphenyl)-6-ethyl-2-{[2-(pyrimidin-2-ylamino)ethyl]amino}pyrimidine-5-carboxylate], the 50% inhibitory concentration (IC50) was at most 10000 nM.

For the molecule `CC(CNc1nccc(-c2ccc(C(N)=O)cc2)n1)c1ccccc1` (centres unmarked) [4-{2-[(2-phenylpropyl)amino]pyrimidin-4-yl}benzamide], the IC50 is at most 1000 nM.

As for `NC(=O)c1ccc(-c2ccnc(NCc3ccc(N)cc3)n2)cc1` [4-(2-{[(4-aminophenyl)methyl]amino}-pyrimidin-4-yl)benzamide], the IC50 was at most 10000 nM.

`Cc1c[nH]c(-c2cnc(NCCNc3ccc([N+](=O)[O-])c(N)n3)nc2-c2ccc(F)cc2Cl)n1` [{2-[(6-amino-5-nitro(2-pyridyl))amino]ethyl}[4-(2-chloro-4-fluorophenyl)-5-(4-methylimidazol-2-yl)pyrimidin-2-yl]amine]: the IC50 is at most 1000 nM.

For `CCOC(=O)c1cnc(NCCNc2ccc([N+](=O)[O-])cn2)nc1-c1ccc(N2CCOCC2)cc1` [ethyl-4-(morpholin-4-ylphenyl)-2-({2-[(5-nitro(2-pyridyl))amino]ethyl}amino)pyrimidine-5-carboxylate], the IC50 was at most 1000 nM.

Consider `CCOC(=O)c1cnc(NCCNc2ccc([N+](=O)[O-])cn2)nc1Nc1ccc(Cl)cc1Cl` [ethyl 4-[(2,4-dichlorophenyl)amino]-2-({2-[(5-nitro(2-pyridyl))amino]-ethyl}amino)pyrimidine-5-carboxylate], for which the IC50 is at most 10000 nM.

For the molecule `O=C(NC1CC1c1ccccc1)c1ccc(-c2ccnc(NCCNc3ccc([N+](=O)[O-])cn3)n2)cc1` (centres unmarked) [{4-[2-({2-[(5-nitro(2-pyridyl))amino]ethyl}amino)pyrimidin-4-yl]phenyl}-N-(2-phenylcyclopropyl)-carboxamide], the IC50 is at most 10000 nM.

`N#Cc1ccc(-c2nc(NCCNc3ccc([N+](=O)[O-])cn3)ncc2C(=O)OCC(O)CN2CCOCC2)cc1` (centres unmarked) [2-hydroxy-3-morpholin-4-yl-propyl 4-(4-cyanophenyl)-2-({2-[(5-nitro(2-pyridyl))amino]ethyl}amino)pyrimidine-5-carboxylate]: the IC50 was at most 1000 nM.

Turning to `Cc1cnc(CNC(=O)c2ccc(-c3ccnc(NCCNc4ccc([N+](=O)[O-])cn4)n3)cc2)cn1` [N-[(5-methylpyrazin-2-yl)methyl]{4-[2-({2-[(5-nitro(2-pyridyl))amino]ethyl}amino)pyrimidin-4-yl]phenyl}carboxamide], the IC50 was at most 10000 nM.

As for `Clc1ccc(-c2ccnc(NCCNc3ccccn3)n2)c(Cl)c1` [[4-(2,4-dichlorophenyl)pyrimidin-2-yl][2-(2-pyridylamino)ethyl]amine], the IC50 is at most 10000 nM.

Take `N#Cc1ccc(-c2nc(NCCNc3ccc([N+](=O)[O-])cn3)ncc2C(=O)NCCO)cc1` [[4-(4-cyanophenyl)-2-({2-[(5-nitro(2-pyridyl))amino]ethyl}amino)pyrimidin-5-yl]-N-(2-hydroxyethyl)carboxamide]: the IC50 was at most 1000 nM.

For `Nc1nc(NCCNc2ccc([N+](=O)[O-])c(-c3ccc(Cl)cc3Cl)n2)ccc1[N+](=O)[O-]` [{2-[(6-amino-5-nitro(2-pyridyl))amino]ethyl}[6-(2,4-dichlorophenyl)-5-nitro(2-pyridyl)]amine], the IC50 is at most 1000 nM.
